Laboratory results as given in patent publication US10435752B2, “Use of ADCY3 for diagnosis and treatment of gastric cancer” (NATIONAL CANCER CENTER, priority 2012, dated 2019).

Legend:
ADCY3 promoter = ADCY3 promoter methylation after in vitro demethylation (bisulfite sequencing); assay type: cell-based, human; conditions: KATO III cells, 10 μM, 96 hrs, FIG. 5D
Protocol: To assay the methylation status of the ADCY3 promoter, genomic DNA was bisulfite-treated using the EZ DNA Methylation-Gold Kit (ZYMO Research, USA), and treated with methylation-specific PCR primers (Table 3) that were designed using EpiDesigner (Sequenom, USA).
A methylation-specific high-resolution melting assay (MS-HRM) was performed using 10 ng of bisulfite-treated genomic DNA and ResoLight dye in a LightCycler 480 (Roche Applied Science) according to the manufacturer's protocol. Results were analyzed using Gene Scanning software (Roche). For bisulfite sequencing, the promoter region containing 39 CpG sites was amplified from the genomic DNA of bisulfite-treated gastric cells, cloned into the TOPO-TA vector (Invitrogen), and sequenced using the 3730xl DNA analyzer (Applied Biosystems).
To investigate the effects of promoter demethylation on ADCY3 expression, KATO III cells were incubated for 96 hrs in a culture medium with or without 5-Aza-2′-deoxycytidine (5-Aza-dC; Sigma Aldrich, USA) at a final concentration of 10 μM, and the mRNA level of ADCY3 was measured using qRT-PCR.

ADCY3 = ADCY3 mRNA level by qRT-PCR after demethylation; assay type: cell-based, human; conditions: KATO III cells, 10 μM, 96 hrs, relative to the negative control, FIG. 5E
Protocol: qRT-PCR reactions were performed using a LightCycler 480 (Roche Applied Science, UK) and ABI 7500 Fast Real-Time PCR system (Applied Biosystems). Results were quantified either by using β-actin for normalization (relative quantification), or by standard curve-based absolute quantification. To investigate the effects of promoter demethylation on ADCY3 expression, KATO III cells were incubated for 96 hrs in a culture medium with or without 5-Aza-2′-deoxycytidine (5-Aza-dC; Sigma Aldrich, USA) at a final concentration of 10 μM, and the mRNA level of ADCY3 was measured using qRT-PCR.

Nc1ncn([C@H]2C[C@H](O)[C@@H](CO)O2)c(=O)n1 [5-Aza-dC, 5-Aza-2′-deoxycytidine]
methylation of CpG sites in the ADCY3 promoter (ADCY3 promoter): demethylation of CpG sites
ADCY3 mRNA expression level (ADCY3): recovery of ADCY3 mRNA expression level
